Test results reported in ChEMBL document CHEMBL1155845, “Novel terphenyls and 3,5-diaryl isoxazole derivatives endowed with growth supporting and antiapoptotic properties” (J Med Chem, 2008).
Calls of active or inactive are those of the source. No cut-off for these calls is given here.

Key:
HL-60 [1] = test: Growth inhibition of human HL60 cells after 48 hrs by trypan blue assay; format: functional, cell-based; conditions: HL-60, 48 h
HL-60 [2] = test: Antiproliferative activity against human HL60 cells after 72 hrs in serum free medium; format: functional
HL-60 [3] = test: Enhancement of human HL60 cells growth at less than 10 uM after 48 hrs by trypan blue assay; format: functional, cell-based
HL-60 [4] = test: Enhancement of human HL60 cells growth at 1 uM after 72 hrs in serum free medium; format: functional, cell-based
HL-60 [5] = test: Enhancement of human HL60 cells growth at 2.5 uM after 72 hrs in serum free medium; format: functional, cell-based
HL-60 [6] = test: Growth inhibition of human HL60 cells at greater than 10 uM after 48 hrs by trypan blue assay; format: functional, cell-based
HL-60 [7] = test: Antiapoptotic activity in human HL60 cells after 72 hrs in serum free medium relative to control; format: functional
HL-60 [8] = test: Enhancement of human HL60 cells growth assessed as promotion of G1 to S transition at 2.5 uM after 24 hrs by flow cytometry; format: functional, cell-based
HL-60 [9] = test: Inhibition of daunorubicin-induced apoptosis in human HL60 cells at 2.5 uM after 48 hrs; format: functional, cell-based
HL-60 [10] = test: Enhancement of human HL60 cells growth at 5 uM after 72 hrs in serum free medium; format: functional, cell-based
HL-60 [11] = test: Antiapoptotic activity in human HL60 cells at 2.5 to 5 uM after 72 hrs in serum free medium relative to control; format: functional
HL-60 [12] = test: Growth inhibition of human HL60 cells at 5 after 72 hrs in serum free medium; format: functional, cell-based
HL-60 [13] = test: Growth inhibition of human HL60 cells at 2.5 uM after 72 hrs in serum free medium; format: functional, cell-based

In the case of `O=C(O)c1ccc(-c2ccccc2-c2ccc(O)c(C34CC5CC(CC(C5)C3)C4)c2)cc1`, the IC50 (HL-60 [1]) is reported as 8 µM.

For `O=[N+]([O-])c1ccc(-c2cc(-c3ccc(O)c(C45CC6CC(CC(C6)C4)C5)c3)on2)cc1`, the “growth inhibition (GI)” value (HL-60 [2]) was 70%, the Activity (HL-60 [3]) was “Active” and the Activity (HL-60 [4]) was “Active”. The Activity (HL-60 [5]) was “Active” and the Activity (HL-60 [6]) was “Active”.

Work on `COc1cc(-c2ccc(-c3ccc(C(=O)O)cc3)cc2)cc(OC)c1OC` yielded an Activity (HL-60 [7]) of 18%.

`O=C(O)c1ccc(-c2ccc(-c3ccc(O)c(C45CC6CC(CC(C6)C4)C5)c3)cc2)cc1` was tested, and the Activity (HL-60 [6]) was “Active”.

For `O=C(O)c1ccc(-c2cc(-c3ccc(O)c(C45CC6CC(CC(C6)C4)C5)c3)on2)cc1`, the IC50 (HL-60 [1]) was 3 µM.

With `O=[N+]([O-])c1ccc(-c2cc(-c3ccc(O)c(C45CC6CC(CC(C6)C4)C5)c3)no2)cc1` the “growth inhibition (GI)” value (HL-60 [2]) was 70%, the Activity (HL-60 [3]) was “Active” and the Activity (HL-60 [8]) was “Active”. For the same molecule, the Activity (HL-60 [9]) was “Active”, the Activity (HL-60 [6]) was “Active” and the Activity (HL-60 [10]) was “Active”. For the same molecule, the Activity (HL-60 [11]) was 10%.

`O=C(O)c1ccc(C2=NOC(c3ccc(O)c(C45CC6CC(CC(C6)C4)C5)c3)C2)cc1` (stereo not drawn) was tested, and the Activity (HL-60 [12]) was “Active”, the “growth inhibition (GI)” value (HL-60 [2]) was 70% and the Activity (HL-60 [3]) was “Active”. The Activity (HL-60 [6]) was “Active” and the Activity (HL-60 [13]) was “Active”.

In the case of `COc1cc(-c2cccc(-c3ccc(C(=O)O)cc3)c2)cc(OC)c1OC`, the Activity (HL-60 [7]) is reported as 17%.

`O=C(O)c1ccc(-c2cccc(-c3ccc(O)c(C45CC6CC(CC(C6)C4)C5)c3)c2)cc1` was tested, and the Activity (HL-60 [6]) was “Active”.
